The source made the active and inactive calls. No cut-off for these calls is given here. Starred links: 1 amine or outer side, 2 acyl side, 3 side chain; linkers in the order of their positions; H or OH if unused. Positions of bridges follow the written chain, without caps; N, C: chain ends. Non-standard residues stand in square brackets, D forms with d. Residues, ends and D or L forms follow the SMILES beside them. Chains are numbered I, II in the order given. NHNH = N(N[*:2])[*:1]
Legend:
[1] = target: Delta-type opioid receptor (Rattus norvegicus, UniProt P33533); experiment: Displacement of [3H]lleDelt2 from DOR in Wistar rat whole brain membranes after 45 mins by liquid scintillation counting method; assay type: cell membranes, Membrane
Rattus norvegicus [2] = species: Rattus norvegicus; experiment: Selectivity ratio of Ki for displacement of [3H]lleDelt2 from DOR in Wistar rat whole brain membranes to displacement of [3H]DAMGO from MOR in Wistar rat whole brain membranes; assay type: cell membranes
Rattus norvegicus [3] = species: Rattus norvegicus; experiment: (§1) Agonist activity at heteromeric G-protein in Wistar rat whole brain membranes after 30 mins by [35S]GTPgammaS binding assay; assay type: cell membranes; conditions: Membrane
[4] = as §1; assay type: cell membranes, Membrane
Mu-type opioid receptor [5] = target: Mu-type opioid receptor (Rattus norvegicus, UniProt P33535); experiment: Displacement of [3H]DAMGO from MOR in Wistar rat whole brain membranes after 45 mins by liquid scintillation counting method; assay type: cell membranes, Membrane
Mus musculus [6] = experiment: Antinociceptive activity in Harlan CD-1 mouse model of thermal-induced nociception assessed as increase in latency to tail withdrawal at 0.01 nmol, icv measured after 45 to 90 mins by tail flick test; assay type: functional, organism-based
Mus musculus [7] = species: Mus musculus; experiment: Antinociceptive activity in Harlan CD-1 mouse model of thermal-induced nociception assessed as increase in latency to tail withdrawal at 0.01 nmol, i.t measured after 45 to 120 mins by tail flick test; assay type: functional, organism-based
Mus musculus [8] = experiment: Analgesic activity in formalin-induced nociception Harlan CD-1 mouse model assessed as reduction in time spent in licking or biting formalin injected hind paw during neurogenic phase at 0.1 nmol, sc pretreated for 15 mins followed by formalin induction measured up to 10 mins; assay type: functional, organism-based
[9] = Half life in human plasma at 100 ug/ml by HPLC method; assay type: ADME, cell-free
Mus musculus [10] = experiment: Analgesic activity in formalin-induced nociception Harlan CD-1 mouse model assessed as reduction in time spent in licking or biting formalin injected hind paw during inflammatory phase at 0.1 nmol, sc pretreated for 15 mins followed by formalin induction measured after 15 to 40 mins; assay type: functional, organism-based
Mu-type opioid receptor [11] = target: Mu-type opioid receptor (Homo sapiens, UniProt P35372); experiment: Binding affinity to MOR (unknown origin)
Mus musculus [12] = experiment: Antinociceptive activity in Harlan CD-1 mouse model of thermal-induced nociception assessed as increase in latency to tail withdrawal at 0.01 nmol, icv measured after 15 to 120 mins by tail flick test; assay type: functional, organism-based
Mus musculus [13] = species: Mus musculus; experiment: Antinociceptive activity in Harlan CD-1 mouse model of thermal-induced nociception assessed as increase in latency to tail withdrawal at 0.01 nmol, i.t measured after 15 to 120 mins by tail flick test; assay type: functional, organism-based

Chain of Mu-type opioid receptor (Rattus norvegicus, UniProt P33535) (P33535 whole entry): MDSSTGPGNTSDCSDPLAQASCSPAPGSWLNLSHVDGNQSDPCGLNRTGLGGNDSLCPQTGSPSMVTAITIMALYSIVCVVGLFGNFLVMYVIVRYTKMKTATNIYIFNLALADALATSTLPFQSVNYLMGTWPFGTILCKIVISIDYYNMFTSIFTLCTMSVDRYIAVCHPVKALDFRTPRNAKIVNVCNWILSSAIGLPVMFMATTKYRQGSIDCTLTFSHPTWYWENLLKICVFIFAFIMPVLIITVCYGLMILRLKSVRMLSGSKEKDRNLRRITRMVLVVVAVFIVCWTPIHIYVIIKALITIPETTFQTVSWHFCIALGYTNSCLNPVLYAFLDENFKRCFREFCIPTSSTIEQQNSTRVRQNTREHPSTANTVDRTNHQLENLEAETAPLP
Chain of Delta-type opioid receptor (P33533 whole entry): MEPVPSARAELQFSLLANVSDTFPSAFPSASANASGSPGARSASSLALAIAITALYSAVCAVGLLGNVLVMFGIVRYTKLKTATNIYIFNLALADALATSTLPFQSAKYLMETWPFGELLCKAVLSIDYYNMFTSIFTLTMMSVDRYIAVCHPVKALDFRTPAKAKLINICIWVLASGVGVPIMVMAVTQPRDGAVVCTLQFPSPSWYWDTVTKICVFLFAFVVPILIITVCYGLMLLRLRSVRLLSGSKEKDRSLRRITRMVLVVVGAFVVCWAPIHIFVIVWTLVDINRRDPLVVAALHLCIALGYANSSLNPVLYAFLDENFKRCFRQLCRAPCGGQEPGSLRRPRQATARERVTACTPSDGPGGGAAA
Chain of Mu-type opioid receptor (Homo sapiens, UniProt P35372) (P35372 whole entry): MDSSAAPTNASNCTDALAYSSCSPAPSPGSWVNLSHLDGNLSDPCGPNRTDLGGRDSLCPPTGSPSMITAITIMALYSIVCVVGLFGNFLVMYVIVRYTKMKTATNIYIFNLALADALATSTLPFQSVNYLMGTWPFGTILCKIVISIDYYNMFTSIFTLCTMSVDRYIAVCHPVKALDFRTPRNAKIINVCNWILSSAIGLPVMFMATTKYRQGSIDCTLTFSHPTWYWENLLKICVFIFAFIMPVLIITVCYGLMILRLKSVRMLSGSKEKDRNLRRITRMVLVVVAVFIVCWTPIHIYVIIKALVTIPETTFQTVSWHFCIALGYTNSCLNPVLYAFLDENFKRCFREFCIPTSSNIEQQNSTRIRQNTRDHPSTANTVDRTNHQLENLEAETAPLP

Structure (SMILES)	Ki [1] [nM]	Ratio Ki (Rattus norvegicus [2])	Emax (Rattus norvegicus [3]) [%]	EC50 [4] [nM]	Ki (Mu-type opioid receptor [5]) [nM]	Activity (Mus musculus [6])	Activity (Mus musculus [7])	Activity (Mus musculus [8])	half-life at 100 ug/ml [9] [h]	Activity (Mus musculus [10])	EC50 (Mu-type opioid receptor [11]) [nM]	Activity (Mus musculus [12])	Activity (Mus musculus [13])
N[C@@H](Cc1ccc(O)cc1)C(=O)N[C@@H]1CSSC[C@@H](NC(=O)[C@@H](N)Cc2ccc(O)cc2)C(=O)NCC(=O)N[C@@H](Cc2ccccc2)C(=O)NNC(=O)[C@H](Cc2ccccc2)NC(=O)CNC1=O (I: H-Y[dC]GF / II: H-Y[dC]GF; disulfide I:2-II:2; linker I:C-II:C via NHNH)	5.25	0.9	146	508	6.06								
N[C@@H](Cc1ccc(O)cc1)C(=O)N[C@@H]1CSCc2ccccc2CSC[C@@H](NC(=O)[C@@H](N)Cc2ccc(O)cc2)C(=O)NCC(=O)N[C@@H](Cc2ccccc2)C(=O)NNC(=O)[C@H](Cc2ccccc2)NC(=O)CNC1=O.O=C(O)C(F)(F)F.O=C(O)C(F)(F)F	2.26	1.8	137	247	1.33	Active	Active	Active	1.45	Active			
C[C@@H](NC(=O)[C@@H](N)Cc1ccc(O)cc1)C(=O)NCC(=O)N[C@@H](Cc1ccccc1)C(=O)NNC(=O)[C@H](Cc1ccccc1)NC(=O)CNC(=O)[C@@H](C)NC(=O)[C@@H](N)Cc1ccc(O)cc1 [BIPHALIN]	3.5		177	75.4	0.79			Active	0.55	Active	1 to 4		
N[C@@H](Cc1ccc(O)cc1)C(=O)N[C@@H]1CSCc2cccc(c2)CSC[C@@H](NC(=O)[C@@H](N)Cc2ccc(O)cc2)C(=O)NCC(=O)N[C@@H](Cc2ccccc2)C(=O)NNC(=O)[C@H](Cc2ccccc2)NC(=O)CNC1=O	3.81	2.2	160	213	1.73			Active		Active		Active	Active
N[C@@H](Cc1ccc(O)cc1)C(=O)N[C@@H]1CSCc2ccc(cc2)CSC[C@@H](NC(=O)[C@@H](N)Cc2ccc(O)cc2)C(=O)NCC(=O)N[C@@H](Cc2ccccc2)C(=O)NNC(=O)[C@H](Cc2ccccc2)NC(=O)CNC1=O	2.52	1.5	150	87.4	1.61			Active		Active		Active	Active

From ChEMBL document CHEMBL4190333, “Cyclic Biphalin Analogues Incorporating a Xylene Bridge: Synthesis, Characterization, and Biological Profile” (ACS Med Chem Lett, 2017)
